Measured values taken from PMC11087509, “Multimodal binding and inhibition of bacterial ribosomes by the antimicrobial peptides Api137 and Api88” (Nature Communications, 2024).
Where a SMILES comes first, the peptide text is derived from it. The star is where a group is joined. Orn(α-tetramethylguanidino) = CN(C)C(=N[C@@H](CCCN)C(=O)*)N(C)C

How the values were obtained:
[1] = biological target: T1, 50S subunit (Escherichia coli, UniProt P0A7M6+P0ADZ0+P60723+P61175); test: Cryo-EM of 50S•Api137 and 50S•Api88 complexes; assay type: binding, E. coli; conditions: 50S 0.3 µM, peptide 30 µM, Tico buffer pH 7.6, room temperature, 20 min
T1 construct: Ribosomes were isolated from the E. coli strain MRE600; made in house; native subunits isolated in house
Description: (§1) Several hundred grams of log-phase cells were commercially produced and purchased. Cells were washed in buffer A (20 mmol/L HEPES (pH 7.6), 6 mmol/L MgAc2, 30 mmol/L AcOK, 4 mmol/L ß-mercaptoethanol) and lysed in an M-110L microfluidizer (Microfluidics) at 17,000 psi and 4 °C. Cell debris was removed by low-speed centrifugation (15,000× g, 10 min, 4 °C) to obtain S30 lysate. Crude ribosomes, mostly containing 70S ribosomes, were pelleted by ultracentrifugation (40,000× g, 17 h, 4 °C) and resuspended in buffer A. The 70S ribosomes were separated from 30S and 50S subunits by zonal ultracentrifugation (Beckman Ti-15; 6–40% sucrose gradient in buffer A, 44,000× g, 16 h, 4 °C). The 70S-containing fractions were collected, and the ribosomes were sedimented by ultracentrifugation (40,000× g, 17 h, 4 °C). […]
Purified 50S subunits (0.3 µM) were incubated with Api137 or Api88 (30 µM) in Tico buffer (20 mM HEPES/KOH, pH 7.6, 30 mM AcOK, 6 mM Mg(AcO)2, 4 mM 2-mercaptoethanol) at room temperature for 20 min. The complexes were applied to glow-discharged (Pelco Easy Glow) holey carbon grids (400 Mesh Cu R2/2, Quantifoil MicroTools GmbH) and plunge-frozen in liquid ethane using a Vitrobot Mark IV (Thermo Fisher Scientific) device. […]

[2] = test system: 30S subunit; test: Fluorescence polarization binding, 30S subunit; set-up: species or system E. coli; conditions: ratio 30S / 50S; cf-labeled
Description: as §1
Dissociation constants (Kd) were determined using purified 70S ribosome, 50S or 30S subunit and cf-labeled peptides in ribosome preparation buffer. […] Fluorescence polarization was measured on a […]^TM microplate reader (Beckman Coulter, Krefeld, Germany) in the top reading position (λexc = 485 nm, λem = 535 nm). […]

[3] = biological target: recombinant TF; conditions: fluorescence polarization; cited from earlier work
Excerpt: Binding sites two and three are close to uL23 and uL29, which is also supported by Api88(Y7B) cross-links. These ribosomal proteins are located adjacent to the PET exit and are binding hubs for the molecular chaperone trigger factor (TF)[34] and the signal recognition particle (SRP), a universally conserved and essential cellular machinery that directs proteins destined for membrane integration to the plasma membrane[35],[36]. This co-translational targeting is initiated by a hydrophobic signal sequence in the nascent protein chain recognized by SRP as it exits the PET. It is appealing to hypo ...

[4] = test system: Gram-negative bacteria; conditions: cited from earlier work
Excerpt: Here we have focused on two structurally modified versions of apidaecin 1b ([…]), which was originally isolated from the western honeybee (Apis mellifera).

[5] = biological target: DnaK; conditions: read-out: Kd (DnaK); peer review response; cited from earlier work
Excerpt: We now introduce trigger factor in line 446 as “…molecular chaperone…” In addition, we hypothesize that Api88 binds to the ribosome within the contact area of TF, which interacts with uL23 and uL29, two proteins we report here as cross-linked to Api88.

Compound: CC[C@H](C)[C@H](NC(=O)[C@H](Cc1ccc(O)cc1)NC(=O)[C@@H](NC(=O)[C@@H]1CCCN1C(=O)[C@H](CCCNC(=N)N)NC(=O)[C@H](CC(N)=O)NC(=O)[C@H](CC(N)=O)NC(=O)[C@H](CCCN)N=C(N(C)C)N(C)C)C(C)C)C(=O)N1CCC[C@H]1C(=O)N[C@@H](CCCNC(=N)N)C(=O)N1CCC[C@H]1C(=O)N[C@@H](CCCNC(=N)N)C(=O)N1CCC[C@H]1C(=O)N1CCC[C@H]1C(=O)N[C@@H](Cc1c[nH]cn1)C(=O)N1CCC[C@H]1C(=O)N[C@@H](CCCNC(=N)N)C(=O)N[C@@H](CC(C)C)C(=O)O [Api137] ({Orn(α-tetramethylguanidino)}-NNRPVYIPRPRPPHPRL-OH)
- binding sites identified on 50S [1]: another apidaecin molecule in an unexpected location near the exit of the PET
- binding to 30S subunit weaker compared to 50S subunit [2]: ~10 fold
- Kd [3]: > 100 µM
- antimicrobial activity (Api137 and Api88 compared) ([4]; Api137 and Api88): comparable level of antimicrobial activity
- antibacterial activity ([4]; against Gram-negative bacteria): enhanced antibacterial activity
- Kd [5]: ~5 µM
